{"source": "patent US20120058983A1", "about": "“Adenosine A1 agonists for the treatment of glaucoma and ocular hypertension” (BAYER PHARMA AKTIENGESELLSCHAFT, priority 2010, published 2012)", "key": {"rabbits": {"tested_on": "rabbits", "details": "rabbits (Lit. 6,7,8); cited from earlier work"}, "cynomolgus monkeys": {"tested_on": "cynomolgus monkeys", "details": "cynomolgus monkeys (Lit. 9); cited from earlier work"}, "Wistar rats": {"tested_on": "Wistar rats", "experiment": "IOP measurements in rats (topical administration to the eye; IOP and hemodynamic parameters)", "type": "in vivo, rat", "description": "Wistar rats with a body weight of about 300 g were anesthetized with isoflurane (2-3% in O2:N2O=1:2). The test compounds were diluted in 0.9% sodium chloride and given by topical administration to the eye in 10 μl volume at a concentration of 10 mg/ml. IOP was measured with a rebound tonometer (TonoLab) at different time points after application of the drugs. Ocular pressure and effects of hemodynamic parameters can be monitored in this model.\nN^6-Cyclopentyl-Adenosine and Example 1 reduce IOP at a volume of 10 μl (concentration 10 mg/ml)."}}, "data": [{"compound": "C[C@H](Cc1ccccc1)Nc1ncnc2c1ncn2[C@@H]1O[C@H](CO)[C@@H](O)[C@H]1O", "note": "[R-PIA, R(−)-N-6-(2-phenylisopropyl)adenosine]", "values": [{"measurement": "intraocular pressure", "setting": "rabbits", "value": "lower intraocular pressure"}, {"measurement": "intraocular pressure", "setting": "cynomolgus monkeys", "value": "lower intraocular pressure"}]}, {"compound": "OC[C@H]1O[C@@H](n2cnc3c(NC4CCCC4)ncnc32)[C@H](O)[C@@H]1O", "note": "[N^6-Cyclopentyl-Adenosine]", "values": [{"measurement": "effects on mean arterial blood pressure / hemodynamic parameters", "setting": "Wistar rats; Wistar rats, 10 mg/ml (FIG. 2)", "value": "significantly reduces blood pressure"}, {"measurement": "IOP", "setting": "Wistar rats; anesthetized Wistar rats, 10 μl volume, concentration 10 mg/ml, rebound tonometer (FIG. 1)", "value": "reduce IOP"}]}, {"compound": "OC[C@H]1O[C@@H](n2cnc3c(NC4CCCCC4)ncnc32)[C@H](O)[C@@H]1O", "note": "[CHA, N6-cyclohexyl-adenosine]", "values": [{"measurement": "intraocular pressure", "setting": "rabbits", "value": "lower intraocular pressure"}, {"measurement": "intraocular pressure", "setting": "cynomolgus monkeys", "value": "lower intraocular pressure"}]}]}
